IC50 data for 13 compounds are collected here from patent US20220306695A1, “COMPSTATIN ANALOGUES AND THEIR MEDICAL USES” (priority 2019, published 2022).

Where two headings read alike, the source gives them in different places. Starred links: 1 amine or outer side, 2 acyl side, 3 side chain; linkers in the order of their positions; H or OH if unused. Positions of bridges follow the written chain, without caps; N, C: chain ends. Non-standard residues stand in square brackets, D forms with d. Residues, ends and D or L forms follow the SMILES beside them. Groups on a side chain read outwards from the residue. *: point of attachment. C20 diacid = O=C(O)CCCCCCCCCCCCCCCCCCC(=O)*; Trp(1-Me) = Cn1cc(C[C@H](N)C(=O)O)c2ccccc21; Abu(4-yl) = O=C([C@H](CC[*:3])N[*:1])[*:2]; C18 diacid = O=C(O)CCCCCCCCCCCCCCCCC(=O)*; C16 diacid = O=C(O)CCCCCCCCCCCCCCC(=O)*; γGlu = O=C(O)[C@H](CCC(=O)[*:2])N[*:1]; AEEA = NCCOCCOCC(=O)O; Sar = CNCC(=O)O

The test system of the assay is classical complement pathway. As to the kind of experiment: In vitro haemolysis assay (inhibition of classical complement pathway). Type of assay: cell-based, human. In outline:
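Serially diluted compound (9 points) was preincubated 15 min at room temperature with diluted human serum, titrated per batch to give 70-90% maximal haemolysis, in Tris/casein buffer pH 7.4 with Mg2+/Ca2+. Antibody-sensitized sheep erythrocytes were then added for 30 min at 37° C, and the reaction was stopped with EDTA. Haemolysis was read at A405, with IC50 from 4PL fit.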

[1] abbreviates: Table 3, human serum, sensitized sheep red blood cells, read-out: IC50[nM], in vitro analysis of inhibition of hemolysis.

As for `CC[C@H](C)[C@H](NC(C)=O)C(=O)N[C@H]1CSSC[C@@H](C(=O)N(C)CC(N)=O)NC(=O)[C@H](CCCNC(=N)N)NC(=O)[C@H](Cc2c[nH]cn2)NC(=O)[C@H](CCC(=O)O)NC(=O)CNC(=O)[C@H](Cc2c[nH]c3ccccc23)NC(=O)[C@H](CC(=O)O)NC(=O)[C@H](CCC(N)=O)NC(=O)[C@H](Cc2c[nH]c3ccccc23)NC(=O)[C@H]([C@@H](C)CC)NC1=O` [Compound 13] (Ac-ICIWQDWGEHRC[Sar]-NH2; disulfide 2-12), the IC50 (commonly the concentration at which inhibition is half-maximal) under setting [1] was < 100 nM.
Still for that read-out and setting: for `CC[C@H](C)[C@@H]1NC(=O)[C@@H](NC(=O)[C@H](Cc2ccccc2)NC(=O)[C@H](CCC(=O)O)NC(=O)[C@H](CO)NC(C)=O)CSCC[C@@H](C(=O)N(C)CC(=O)N[C@@H](CCC(=O)O)C(=O)NCC(=O)N[C@@H](CCC(=O)O)C(=O)NCCOCCOCC(=O)NCCOCCOCC(=O)N[C@@H](CCCCNC(=O)CC[C@H](NC(=O)CNC(=O)CC[C@H](NC(=O)CCCCCCCCCCCCCCC(=O)O)C(=O)O)C(=O)O)C(N)=O)NC(=O)[C@H](CCCNC(=N)N)NC(=O)[C@H](Cc2c[nH]cn2)NC(=O)[C@H](CCC(=O)O)NC(=O)CNC(=O)[C@H](Cc2c[nH]c3ccccc23)NC(=O)[C@H](CC(=O)O)NC(=O)[C@H](CCC(N)=O)NC(=O)[C@H](Cc2cn(C)c3ccccc23)NC1=O` [Compound 160, Ac-SEFA(1)I[1-Me-Trp]QDWGEHRhC(1)[Sar]EGE[Peg3][Peg3]-K([15-carboxy-pentadecanoyl][γGlu]G[γGlu])-NH2] (Ac-SEFCI[Trp(1-Me)]QDWGEHR[Abu(4-yl)][Sar]EGE[AEEA][AEEA]K([γGlu-Gly-γGlu-C16 diacid])-NH2; thioether 4-14) the value was < 100 nM; for `CC[C@H](C)[C@H](NC(=O)[C@H](C)NC(=O)[C@H](CO)NC(=O)[C@H](CO)NC(=O)[C@H](CCC(=O)O)NC(=O)CCCCCCCCCCCCCCC(=O)O)C(=O)N[C@H]1CSSC[C@@H](C(=O)N[C@H](C(=O)N[C@@H](CCC(=O)O)C(=O)NCC(=O)N[C@@H](CCC(=O)O)C(N)=O)[C@@H](C)O)NC(=O)[C@H](CCCNC(=N)N)NC(=O)[C@H](Cc2c[nH]cn2)NC(=O)[C@H](CCC(=O)O)NC(=O)CNC(=O)[C@H](Cc2c[nH]c3ccccc23)NC(=O)[C@H](CC(=O)O)NC(=O)[C@H](CCC(N)=O)NC(=O)[C@H](Cc2c[nH]c3ccccc23)NC(=O)[C@H]([C@@H](C)CC)NC1=O` [Compound 99] ({C16 diacid}-ESSAICIWQDWGEHRCTEGE-NH2; disulfide 6-16), < 250 nM.
Turning to `N[C@@H](Cc1ccccc1)C(=O)O` [Phenylalanine, reference compound], the IC50 (Table 5, different residues at position 3 of Ac-IC(1)XWQDWGEHRC(1)T-NH2, read-out: IC50, CP hemolysis) was > 10000 nM.
`CC[C@H](C)[C@@H]1NC(=O)[C@@H](NC(=O)[C@H](Cc2ccccc2)NC(=O)[C@H](CCC(=O)O)NC(=O)[C@H](CO)NC(C)=O)CSSC[C@@H](C(=O)N[C@H](C(=O)N[C@@H](CCC(=O)O)C(=O)N[C@@H](CCCCN)C(=O)N[C@@H](CCC(=O)NCC(=O)NCC(=O)NCC(=O)N[C@@H](CCCCNC(=O)CC[C@H](NC(=O)CNC(=O)CC[C@H](NC(=O)CCCCCCCCCCCCCCCCC(=O)O)C(=O)O)C(=O)O)C(N)=O)C(=O)O)[C@@H](C)O)NC(=O)[C@H](CCCNC(=N)N)NC(=O)[C@H](Cc2c[nH]cn2)NC(=O)[C@H](CCC(=O)O)NC(=O)CNC(=O)[C@H](Cc2c[nH]c3ccccc23)NC(=O)[C@H](CC(=O)O)NC(=O)[C@H](CCC(N)=O)NC(=O)[C@H](Cc2cn(C)c3ccccc23)NC1=O` [Compound 133] (Ac-SEFCI[Trp(1-Me)]QDWGEHRCTEK[γGlu]GGGK([γGlu-Gly-γGlu-C18 diacid])-NH2; disulfide 4-14): under setting [1], the concentration for half-maximal inhibition (IC50) was < 100 nM.
For `CC[C@H](C)[C@@H]1NC(=O)[C@@H](NC(=O)[C@@H](NC(=O)[C@H](CCC(=O)O)NC(C)=O)[C@@H](C)CC)CSSC[C@@H](C(=O)N[C@H](C(=O)N[C@@H](CCC(=O)O)C(=O)NCC(=O)N[C@@H](CCC(=O)O)C(N)=O)[C@@H](C)O)NC(=O)[C@H](CCCNC(=N)N)NC(=O)[C@H](Cc2c[nH]cn2)NC(=O)[C@H](CCC(=O)O)NC(=O)CNC(=O)[C@H](Cc2c[nH]c3ccccc23)NC(=O)[C@H](CC(=O)O)NC(=O)[C@H](CCC(N)=O)NC(=O)[C@H](Cc2c[nH]c3ccccc23)NC1=O` [Compound 34] (Ac-EICIWQDWGEHRCTEGE-NH2; disulfide 3-13), the IC50 under setting [1] is < 250 nM.
On the same count and under the same terms, to `CC[C@H](C)[C@@H]1NC(=O)[C@@H](NC(=O)[C@@H](NC(=O)[C@H](CCC(=O)O)NC(=O)CNC(=O)[C@H](CCC(=O)O)NC(C)=O)[C@@H](C)CC)CSSC[C@@H](C(=O)N[C@@H](CCC(=O)O)C(=O)NCC(=O)N[C@@H](CCC(=O)O)C(N)=O)NC(=O)[C@H](CCCNC(=N)N)NC(=O)[C@H](Cc2c[nH]cn2)NC(=O)[C@H](CCC(=O)O)NC(=O)CNC(=O)[C@H](Cc2c[nH]c3ccccc23)NC(=O)[C@H](CC(=O)O)NC(=O)[C@H](CCC(N)=O)NC(=O)[C@H](Cc2c[nH]c3ccccc23)NC1=O` [Compound 35] (Ac-EGEICIWQDWGEHRCEGE-NH2; disulfide 5-15) belongs < 500 nM; to `CC[C@H](C)[C@H](NC(C)=O)C(=O)N[C@H]1CSSC[C@@H](C(=O)N[C@H](C(=O)N[C@@H](CCC(=O)O)C(=O)NCC(=O)N[C@@H](CCCCN)C(N)=O)[C@@H](C)O)NC(=O)[C@H](CCCNC(=N)N)NC(=O)[C@H](Cc2c[nH]cn2)NC(=O)[C@H](CCC(=O)O)NC(=O)CNC(=O)[C@H](Cc2c[nH]c3ccccc23)NC(=O)[C@H](CC(=O)O)NC(=O)[C@H](CCC(N)=O)NC(=O)[C@H](Cc2c[nH]c3ccccc23)NC(=O)[C@H]([C@@H](C)CC)NC1=O` [Compound 39] (Ac-ICIWQDWGEHRCTEGK-NH2; disulfide 2-12), < 100 nM; to `CC[C@H](C)[C@@H]1NC(=O)[C@@H](NC(=O)[C@H](Cc2ccccc2)NC(=O)[C@H](CCC(=O)O)NC(C)=O)CSSC[C@@H](C(=O)N[C@@H](CCC(=O)O)C(=O)NCC(=O)N[C@@H](CCC(=O)O)C(=O)N[C@@H](CCCCNC(=O)CC[C@H](NC(=O)CNC(=O)CC[C@H](NC(=O)CCCCCCCCCCCCCCCCC(=O)O)C(=O)O)C(=O)O)C(N)=O)NC(=O)[C@H](CCCNC(=N)N)NC(=O)[C@H](Cc2c[nH]cn2)NC(=O)[C@H](CCC(=O)O)NC(=O)CNC(=O)[C@H](Cc2c[nH]c3ccccc23)NC(=O)[C@H](CC(=O)O)NC(=O)[C@H](CCC(N)=O)NC(=O)[C@H](Cc2cn(C)c3ccccc23)NC1=O` [Compound 134] (Ac-EFCI[Trp(1-Me)]QDWGEHRCEGEK([γGlu-Gly-γGlu-C18 diacid])-NH2; disulfide 3-13), < 100 nM.
For the compound `CC[C@H](C)[C@@H]1NC(=O)[C@@H](NC(=O)[C@H](Cc2ccccc2)NC(=O)[C@H](CCC(=O)O)NC(=O)[C@H](CO)NC(C)=O)CSCC[C@@H](C(=O)N(C)CC(=O)N[C@@H](CCC(=O)O)C(=O)NCCOCCOCC(=O)NCCOCCOCC(=O)N[C@@H](CCCCNC(=O)CC[C@H](NC(=O)CNC(=O)CC[C@H](NC(=O)CCCCCCCCCCCCCCCCC(=O)O)C(=O)O)C(=O)O)C(=O)O)NC(=O)[C@H](CCCNC(=N)N)NC(=O)[C@H](Cc2c[nH]cn2)NC(=O)[C@H](CCC(=O)O)NC(=O)CN(C)C(=O)[C@H](Cc2c[nH]c3ccccc23)NC(=O)[C@H](CC(=O)O)NC(=O)[C@H](CCC(N)=O)NC(=O)[C@H](Cc2cn(C)c3ccccc23)NC1=O` [Compound 162, Ac-SEFA(1)I[1-Me-Trp]QDW[Sar]EHRhC(1)[Sar]E[Peg3][Peg3]-K([17-carboxy-heptadecanoyl][γGlu]G[γGlu])-OH] (Ac-SEFCI[Trp(1-Me)]QDW[Sar]EHR[Abu(4-yl)][Sar]E[AEEA][AEEA]K([γGlu-Gly-γGlu-C18 diacid])-OH; thioether 4-14), the IC50 under setting [1] is < 100 nM.
`CC[C@H](C)[C@H](NC(C)=O)C(=O)N[C@H]1CSSC[C@@H](C(=O)N[C@@H](CO)C(N)=O)NC(=O)[C@H](CCCNC(=N)N)NC(=O)[C@H](Cc2c[nH]cn2)NC(=O)[C@H](CCC(=O)O)NC(=O)CNC(=O)[C@H](Cc2c[nH]c3ccccc23)NC(=O)[C@H](CC(=O)O)NC(=O)[C@H](CCC(N)=O)NC(=O)[C@H](Cc2c[nH]c3ccccc23)NC(=O)[C@H](C(C)C)NC1=O` [G, reference compound] (Ac-ICVWQDWGEHRCS-NH2; disulfide 2-12): the IC50 (Table 4, valine 3 versus isoleucine 3 pairs, read-out: CP hemolysis IC50) was 180 nM.
Take `CC[C@H](C)[C@@H]1NC(=O)[C@@H](NC(=O)[C@H](Cc2ccc(O)cc2)NC(=O)[C@H](CCC(=O)O)NC(=O)[C@H](CO)NC(C)=O)CSSC[C@@H](C(=O)N(C)CC(=O)N[C@@H](CCC(=O)O)C(=O)NCC(=O)N[C@@H](CCC(=O)O)C(=O)NCCOCCOCC(=O)NCCOCCOCC(=O)N[C@@H](CCCCNC(=O)CC[C@H](NC(=O)CNC(=O)CC[C@H](NC(=O)CCCCCCCCCCCCCCCCC(=O)O)C(=O)O)C(=O)O)C(N)=O)NC(=O)[C@H](CCCNC(=N)N)NC(=O)[C@H](Cc2c[nH]cn2)NC(=O)[C@H](CCC(=O)O)NC(=O)CNC(=O)[C@H](Cc2c[nH]c3ccccc23)NC(=O)[C@H](CC(=O)O)NC(=O)[C@H](CCC(N)=O)NC(=O)[C@H](Cc2cn(C)c3ccccc23)NC1=O` [Compound 117] (Ac-SEYCI[Trp(1-Me)]QDWGEHRC[Sar]EGE[AEEA][AEEA]K([γGlu-Gly-γGlu-C18 diacid])-NH2; disulfide 4-14): the IC50 under setting [1] is < 250 nM.
For `CC[C@H](C)[C@H](NC(C)=O)C(=O)N[C@H]1CSSC[C@@H](C(=O)N[C@H](C(=O)N[C@@H](CCC(=O)O)C(=O)NCC(=O)N[C@@H](CCCCNC(=O)COCCOCCNC(=O)COCCOCCNC(=O)CC[C@H](NC(=O)CCCCCCCCCCCCCCCCCCC(=O)O)C(=O)O)C(N)=O)[C@@H](C)O)NC(=O)[C@H](CCCNC(=N)N)NC(=O)[C@H](Cc2c[nH]cn2)NC(=O)[C@H](CCC(=O)O)NC(=O)CNC(=O)[C@H](Cc2c[nH]c3ccccc23)NC(=O)[C@H](CC(=O)O)NC(=O)[C@H](CCC(N)=O)NC(=O)[C@H](Cc2c[nH]c3ccccc23)NC(=O)[C@H]([C@@H](C)CC)NC1=O` [Compound 98] (Ac-ICIWQDWGEHRCTEGK([AEEA-AEEA-γGlu-C20 diacid])-NH2; disulfide 2-12), the IC50 under setting [1] was < 500 nM.
